Results from paper PMC12389269, “Heteroaryl-Capped Hydroxamic Acid Derivatives with Varied Linkers: Synthesis and Anticancer Evaluation with Various Apoptosis Analyses in Breast Cancer Cells, Including Docking, Simulation, DFT, and ADMET Studies” (Pharmaceuticals, 2025).
≈ marks a conversion by molar mass, not a printed value.

Legend:
[1] = test system: A-549 (Human Lung Cancer Cell Line); test: SRB antiproliferative assay, A-549; assay type: cell-based; conditions: Homo sapiens, A549, A-549, 48 h, read-out: GI50
Method: (§1) Following an extensive review of the literature, we selected human breast cancer (MCF-7, MDA-MB-231) and lung cancer (A549) cell lines to evaluate the anticancer potential of the synthesized compounds, and some compounds with good anti-proliferation activity were again tested to evaluate their cytotoxic potential on A-549, MCF-7, and MDA-MB-231. The same were also tested on one non-cancerous/normal (HEK-293) cell line. All the cell lines for the required screening were developed in a suitable medium comprising 10% FBS and 2mM L-glutamine. Cancerous and non-cancerous/normal cell lines were selected for the cell proliferation and cytotoxicity assay and maintained with 5% CO2 at 37 °C in a CO2 incubator with 100% relative humidity for one complete day before the addition of experimental drugs.
(§2) Antiproliferative activity through an SRB assay was performed for all the synthesized compounds on A-549 and MCF-7 cell lines. Around 5000 cells/well were quarantined into a 96-well microtiter plate in 100 μL. The synthesized compounds were solubilized in DMSO and diluted to different concentrations before use. The final-drug-concentration aliquots were poured into microtiter wells, and the plates were incubated for 48 h in regular conditions. After adding the final drug concentration, the cells were allowed to set in place and incubated for 60 min. A total of 50 µL of SRB solution (0.4% w/v) in 1% CH3COOH was poured into each well. The plates were then incubated for 20 min at RT. During subsequent staining, the unbounded dye was removed, and the plate reader recorded the eluted bound stain at 540 nm with a 690 nm reference wavelength. The assay was performed precisely using the appropriate reagents and reaction situation, as per the reported procedure. ADR was selected as the reference drug.

[2] = test system: MCF-7 (Human Breast Cancer Cell Line); test: SRB antiproliferative assay, MCF-7; assay type: cell-based; conditions: Homo sapiens, MCF7, MCF-7, 48 h, read-out: GI50
Method: as §1, §2

MCF-7 cells [3] = test: MTT cytotoxicity assay, MCF-7; assay type: cell-based; conditions: Homo sapiens, MCF7, MCF-7, 24 h
Method: as §1
MTT, a well-known colorimetric cytotoxic assay was performed to validate the cytotoxicity of the selected compounds—VI(b), VI(c), VI(e), and VI(i)—against three different human tumor cell lines [MCF-7, MDA-MB-231, A549] and a normal cell line [HEK293]. The seeding of 1 × 10^4 cells onto each well was executed in a 96-well plate in triplicate, and to keep the cells viable, overnight incubation was undertaken at 37 °C with 5% CO2 in a CO2 incubator. […] The microplate reader was set at 570 nm to measure the absorbance of each well.

MCF-7 cells [4] = test: Apoptosis study, acridine orange/ethidium bromide dual staining; assay type: cell-based, human; conditions: AO/EtBr staining, MCF-7, 40, 60, 80 µg/mL
Method: The staining technique was performed to determine changes in cellular morphology as acridine orange is a cell-permeable dye; i.e., it can enter inside the nucleus and subsequently intercalate with the DNA of both live and apoptotic cells an then emit a green fluorescence. On the other hand, ethidium bromide can only cross the plasma membrane of compromised or late apoptotic cells and bind with their DNA, subsequently radiating an orange to red fluorescence. Therefore, to assess alterations in the morphology of cells, MCF-7 cells were planted in a 12-well plate at a density of 5 × 10^4 cells/well and incubated in humidified air for 24 h at 37 °C. Following cell seeding, MCF-7 cells were exposed to compound VI(i) with at lower (40 µg/mL), IC50 (60 µg/mL), and higher (80 µg/mL) concentrations. Following this, the incubated cells were washed with a buffer (phosphate-buffered saline), and dual staining was executed with acridine orange and ethidium bromide. Then, a 12-well cell culture plate was kept at 37 °C for 30 min of incubation. Consequently, cells were lightly rinsed with phosphate-buffered saline. Following this, pictures were obtained in the inverted fluorescence microscope using the red and green channels for both the dyes.

MCF-7 cells [5] = test: ROS detection with DCFH-DA; assay type: cell-based, human; conditions: MCF-7, 40, 60, 80 µg/mL, vs control
Source text: ROS are commonly produced as a result of the cellular metabolic routes, and they play a key role as a secondary messenger in the healthy physiological system, but elevated quantities of ROS are the reason for various pathological conditions. To assess oxidative stress (ROS)-mediated apoptosis, DCFH-DA (2′,7′-dichlorodihydrofluorescein diacetate) dye was used as ROS transforms DCFH to DCF, producing a green fluorescence. The intensity of green fluorescence emitted is directly correlated with the amount of ROS produced by the cells in the treatment groups. Briefly, MCF-7 cells were passaged then seeded (5 × 10^4 cells /well) in a 12-well plate and exposed to all three (lower, IC50, higher) concentrations of compound VI(i); then, overnight incubation was undertaken with 5% carbon dioxide at 37 °C. To assess the generated ROS, treated cells (MCF-7) were washed with PBS. Staining was undertaken using DCFH-DA and photographed with the help of a fluorescence microscope (inverted) in the green and phase contrast channels.

MCF-7 cells [6] = test: Apoptosis assay, annexin V/PI flow cytometry; assay type: cell-based, human; conditions: 24 h
Method: Qualitative analysis of different stages of apoptosis in MCF-7 cells using AO/EtBr dual staining was further quantitatively validated using annexin V/PI staining. Annexin V binds with the exposed phosphatidyl serine of apoptotic cells in a calcium-dependent manner and permits the determination of a number of cells in different stages of apoptosis. At the same time, PI binds with the nucleic acid of dead cells. In brief, cells were plated in a 6-well cell culture plate followed by exposure to lower, IC50, and higher concentrations of compound VI(i), as described in the above experiments. Following 24 h of incubation, treated cells were harvested using […] EDTA; then, annexin V/PI staining was performed, which was incubated for 30 min at 37 °C. The population of the apoptotic cells was examined by evaluating the cell suspension using a flow cytometer.

[7] = MCF-7, IC50 concentration (60 µg/mL)
[8] = MCF-7, lower concentration (40 µg/mL)

What does the source list for `COc1ccc(-c2cnn(CCCCCC(=O)NO)n2)cc1` [VI(i), N-Hydroxy-6-(4-(4-methoxyphenyl)-2H-1,2,3-triazol-2-yl)hexanamide]?
GI50 [1]: < 10 µg/mL; GI50 [2]: < 10 µg/mL; IC50 (MCF-7 cells [3]): 60 µg/mL (≈ 197 µM); apoptosis induction (cell morphology) (MCF-7 cells [4]): effectively trigger the apoptotic mode of cell death in breast cancer cells in a concentration-dependent manner; ROS level (MCF-7 cells [5]): significantly increased in concentration-dependent manner; increment in early apoptotic cell population with respect to control (MCF-7 cells [6]; [7]): 9.58%; increment in late apoptotic cell population with respect to control (MCF-7 cells [6]; [7]): 12.6%; increment in early apoptotic cell population with respect to control (MCF-7 cells [6]; [8]): 5.61%; increment in late apoptotic cell population with respect to control (MCF-7 cells [6]; [8]): 4.14%
